From ChEMBL document CHEMBL4346726 (Bioorg Med Chem Lett, 2019)

Key:
Hepatitis C virus = experiment: Antiviral activity against HCV genotype 3a in RLuc cells assessed as reduction in viral replication by luciferase reporter gene assay; format: functional, organism-based, Hepacivirus hominis, subtype 3a
[1] = Inhibition of HCV genotype 3a NS3/4a protease by enzymatic assay; set-up: species or system Hepatitis C virus subtype 3a
Hepacivirus hominis = experiment: Binding affinity to HCV NS3/4a protease assessed as compound-protein adduct formation per mg protein using radiolabelled compound
[2] = Volume of distribution at steady state in rat; format: ADME; conditions: in vivo, read-out: Vdss
[3] = Clearance in rat; format: ADME; conditions: in vivo
[4] = Oral bioavailability in rat; format: ADME, organism-based; conditions: in vivo
[5] = Lipophilicity, log D of compound; format: physicochemical; conditions: octanol/water
[6] = Half life in rat; format: ADME; conditions: in vivo
[7] = Drug concentration in rat liver after 6 hrs; format: ADME, tissue-based; conditions: read-out: Drug uptake

| SMILES | Ki [1] [nM] | EC50 (Hepatitis C virus; Hepatitis C virus, subtype 3a) [nM] | PB (Hepacivirus hominis) [pmol/mg] | further results |
| --- | --- | --- | --- | --- |
| CC[C@@H]1[C@@H]2CN(C(=O)[C@H](C(C)(C)C)NC(=O)O[C@@H]3C[C@H]3CCCC3CC3c3nc4ccc(OC)cc4nc3O2)[C@@H]1C(=O)N[C@]1(C(=O)NS(=O)(=O)C2(C)CC2)C[C@H]1C(F)F (stereo in doubt; 46) | 9.4 |  |  | EC50 (Hepatitis C virus): 829 nM |
| CC[C@@H]1[C@@H]2CN(C(=O)[C@H](C(C)(C)C)NC(=O)O[C@@H]3C[C@H]3CCCC3CC3c3nc4ccc(OC)cc4nc3O2)[C@@H]1C(=O)N[C@]1(C(=O)NS(=O)(=O)C2(C)CC2)C[C@H]1C(F)F (stereo in doubt; 45) | 1.7 |  |  | EC50 (Hepatitis C virus): 128 nM |
| COc1ccc2nc3c(nc2c1)O[C@H]1CN(C(=O)[C@H](C(C)(C)C)NC(=O)O[C@@H]2C[C@H]2CCCCC3)[C@H](C(=O)N[C@]2(C(=O)NS(=O)(=O)C3(C)CC3)C[C@H]2C(F)F)[C@@H]1CC(C)C | 0.63 | 1120 |  |  |
| COc1ccc2nc3c(nc2c1)O[C@H]1CN(C(=O)[C@H](C(C)(C)C)NC(=O)O[C@@H]2C[C@H]2CCCCC3)[C@H](C(=O)N[C@]2(C(=O)NS(=O)(=O)C3(C)CC3)C[C@H]2C(F)F)[C@@H]1Cc1ccccc1 | 0.87 | 1110 |  |  |
| CC[C@@H]1[C@@H]2CN(C(=O)[C@H](C(C)(C)C)NC(=O)O[C@@H]3C[C@H]3CCCCCc3nc4ccc(OC)cc4nc3O2)[C@@H]1C(=O)N[C@]1(C(=O)NS(=O)(=O)C2(C)CC2)C[C@H]1C | 0.838 | 109 |  |  |
| COc1ccc2c(O[C@@H]3C[C@H]4C(=O)N[C@]5(C(=O)NS(=O)(=O)C6CC6)C[C@H]5/C=C\CCCCN(C)C(=O)[C@@H]4C3)cc(-c3nc(C(C)C)cs3)nc2c1C |  |  | 22 |  |
| CC[C@@H]1[C@@H]2CN(C(=O)[C@H](C(C)(C)C)NC(=O)O[C@@H]3C[C@H]3CCCCC(F)c3nc4ccc(OC)cc4nc3O2)[C@@H]1C(=O)N[C@]1(C(=O)NS(=O)(=O)C2(C)CC2)C[C@H]1C(F)F (some centres not stated) | 0.13 | 35 |  |  |
| C=C[C@@H]1C[C@]1(NC(=O)[C@@H]1C[C@@H](Oc2cc(-c3csc(NC(=O)C(C)C)n3)nc3c(Br)c(OC)ccc23)CN1C(=O)[C@@H](NC(=O)OC1CCCC1)C(C)(C)C)C(=O)O |  |  | 15 |  |
| COc1ccc2nc3c(nc2c1)O[C@H]1CN(C(=O)[C@H](C(C)(C)C)NC(=O)O[C@@H]2C[C@H]2CCCCC3)[C@H](C(=O)N[C@]2(C(=O)NS(=O)(=O)C3CC3)C[C@H]2CCF)[C@@H]1C | 1.3 | 419 |  |  |
| CC[C@@H]1C[C@]1(NC(=O)[C@@H]1C[C@@H](Oc2cc(-c3csc(NC(C)C)n3)nc3c(Cl)c(OCCN4CCOCC4)ccc23)CN1C(=O)[C@@H](NC(=O)O[C@@H]1C[C@@H]2C[C@@H]2C1)C(C)(C)C)C(=O)O |  |  | 26 |  |
| CC[C@@H]1[C@@H]2CN(C(=O)[C@H](C(C)(C)C)NC(=O)O[C@@H]3C[C@H]3CCCCCc3nc4ccc(OC)cc4nc3O2)[C@@H]1C(=O)N[C@]1(C(=O)NS(=O)(=O)C2CC2)C[C@H]1CC | 0.563 | 272 |  | Vd [2]: 3.1 L/kg; clearance [3]: 11.2 mL/min/kg; bioavailability [4]: 100%; logD [5]: 4.6; half-life [6]: 5 h; concentration at 6 h [7]: 30.2 µM |
| COc1ccc2nc3c(nc2c1)O[C@H]1CN(C(=O)[C@H](C(C)(C)C)NC(=O)O[C@@H]2C[C@H]2CCCCC3)[C@H](C(=O)N[C@]2(C(=O)NS(=O)(=O)C3CC3)C[C@H]2CC(F)F)[C@@H]1C | 0.92 | 375 |  |  |
| C=C[C@@H]1C[C@]1(NC(=O)[C@@H]1C[C@@H]2CN1C(=O)[C@H](C(C)(C)C)NC(=O)O[C@@H]1C[C@H]1CCCCCc1nc3ccc(OC)cc3nc1O2)C(=O)NS(=O)(=O)C1CC1 |  |  | 24 |  |
| C=C[C@@H]1C[C@]1(NC(=O)[C@@H]1C[C@@H](Oc2ncc(OC)c3ccc(Cl)cc23)CN1C(=O)[C@@H](NC(=O)OC(C)(C)C)C(C)(C)C)C(=O)NS(=O)(=O)C1CC1 |  |  | 114 |  |
| COc1ccc2nc3c(nc2c1)O[C@H]1CN(C(=O)[C@H](C(C)(C)C)NC(=O)O[C@@H]2C[C@H]2CCCCC3)[C@H](C(=O)N[C@]2(C(=O)NS(=O)(=O)C3(C)CC3)C[C@H]2C(F)F)[C@@H]1C | 0.1 | 20 |  | Vd [2]: 2.2 L/kg; clearance [3]: 35 mL/min/kg; bioavailability [4]: 100%; logD [5]: 3.5; half-life [6]: 1.3 h; concentration at 6 h [7]: 3.1 µM |
| Cc1cnc(C(=O)N[C@H]2CCCCC/C=C\[C@@H]3C[C@@]3(C(=O)NS(=O)(=O)C3CC3)NC(=O)[C@@H]3C[C@@H](Oc4nc5ccccc5c5ccccc45)CN3C2=O)cn1 |  |  | 295 |  |
| COc1ccc2nc3c(nc2c1)O[C@H]1CN(C(=O)[C@H](C(C)(C)C)NC(=O)O[C@@H]2C[C@H]2CCCCC3)[C@H](C(=O)N[C@]2(C(=O)NS(=O)(=O)C3(C)CC3)C[C@H]2C(F)F)[C@@H]1C1CC1 | 4.9 | 1160 |  |  |
| C=C[C@@H]1C[C@]1(NC(=O)[C@@H]1[C@H](CC)[C@@H]2CN1C(=O)[C@H](C(C)(C)C)NC(=O)O[C@@H]1C[C@H]1CCCCCc1nc3ccc(OC)cc3nc1O2)C(=O)NS(=O)(=O)C1CC1 | 0.081 | 20 | 117 | Vd [2]: 1.9 L/kg; clearance [3]: 14.7 mL/min/kg; logD [5]: 4.1; half-life [6]: 2.2 h; concentration at 6 h [7]: 20.9 µM |
| CC(C)(C)OC(=O)N[C@H]1CCCCC/C=C\[C@@H]2C[C@@]2(C(=O)NS(=O)(=O)C2CC2)NC(=O)[C@@H]2C[C@@H](OC(=O)N3Cc4cccc(F)c4C3)CN2C1=O |  |  | 202 |  |
| CC[C@@H]1[C@@H]2CN(C(=O)[C@H](C(C)(C)C)NC(=O)O[C@@H]3C[C@H]3CCCCCc3nc4ccc(OC)cc4nc3O2)[C@@H]1C(=O)N[C@]1(C(=O)NS(=O)(=O)C2CC2)C[C@H]1C(F)F | 0.043 | 27 |  | Vd [2]: 1 L/kg; clearance [3]: 33.3 mL/min/kg; bioavailability [4]: 36%; logD [5]: 3.5; half-life [6]: 0.8 h; concentration at 6 h [7]: 1.2 µM |
| CC[C@@H]1C[C@]1(NC(=O)[C@@H]1C[C@@H]2CN1C(=O)[C@H](C(C)(C)C)NC(=O)OCC(C)(C)CCCCc1cccc3c1CN(C3)C(=O)O2)C(=O)NS(=O)(=O)C1CC1 |  |  | 29 |  |
| COc1ccc2nc3c(nc2c1)O[C@@H]1C[C@@H](C(=O)N[C@]2(C(=O)NS(=O)(=O)C4(C)CC4)C[C@H]2C(F)F)N(C1)C(=O)[C@H](C(C)(C)C)NC(=O)O[C@@H]1C[C@H]1CCCCC3 | 0.165 | 74 |  |  |
| COc1ccc2c(O[C@H]3CCN4C(=O)N(C)CCCC/C=C\[C@@H]5C[C@@]5(C(=O)NS(=O)(=O)C5(C)CC5)NC(=O)[C@@H]4C3)cc(-c3nc(C(F)(F)F)cs3)nc2c1C |  |  | 96 |  |
| CCC[C@@H]1[C@@H]2CN(C(=O)[C@H](C(C)(C)C)NC(=O)O[C@@H]3C[C@H]3CCCCCc3nc4ccc(OC)cc4nc3O2)[C@@H]1C(=O)N[C@]1(C(=O)NS(=O)(=O)C2(C)CC2)C[C@H]1C(F)F | 0.12 | 36 |  |  |
| CC[C@@H]1C[C@]1(NC(=O)[C@@H]1[C@H](C)[C@@H]2CN1C(=O)[C@H](C(C)(C)C)NC(=O)O[C@@H]1C[C@H]1CCCCCc1nc3ccc(OC)cc3nc1O2)C(=O)NS(=O)(=O)C1CC1 | 0.53 | 188 |  |  |
| CC[C@@H]1[C@@H]2CN(C(=O)[C@H](C(C)(C)C)NC(=O)O[C@@H]3C[C@H]3CC/C=C/C(F)(F)c3nc4ccc(OC)cc4nc3O2)[C@@H]1C(=O)N[C@]1(C(=O)NS(=O)(=O)C2(C)CC2)C[C@H]1C(F)F | 0.053 | 5.3 |  |  |
